Assay results from the supplement of paper PMC11451515.

Tested on: SEM cells
Experiment: cell viability relative to DMSO control; higher = less cytotoxic
Settings: 48 h
In short: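 Viability values are per-plate percentages of DMSO wells, with background from cell-free wells. Library compounds in DMSO were pin-dosed, in an 11-point threefold series from 47 μM to 0.79 nM, onto NOMO1 or SEM (500 cells/well) or P12-Ichikawa (1000 cells/well) leukemia cells in 1536-well plates (5 μl). Those cells had been adapted for at least four passages in each medium, and CellTiter-Glo One luminescence was read after 48 h at 37°C.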

[1] = HPLM + 10% dialyzed FBS, 0.000781 µM
[2] = HPLM + 10% dialyzed FBS, 0.00234 µM
[3] = HPLM + 10% dialyzed FBS, 0.00702 µM
[4] = HPLM + 10% dialyzed FBS, 0.0211 µM
[5] = HPLM + 10% dialyzed FBS, 0.0632 µM
[6] = HPLM + 10% dialyzed FBS, 0.19 µM
[7] = HPLM + 10% dialyzed FBS, 0.569 µM
[8] = HPLM + 10% dialyzed FBS, 1.71 µM
[9] = HPLM + 10% dialyzed FBS, 5.12 µM
[10] = HPLM + 10% dialyzed FBS, 15.4 µM
[11] = HPLM + 10% dialyzed FBS, 46.1 µM
[12] = RPMI 5 mM glucose + 10% FBS, 0.000781 µM
[13] = RPMI 5 mM glucose + 10% FBS, 0.00234 µM
[14] = RPMI 5 mM glucose + 10% FBS, 0.00702 µM
[15] = RPMI 5 mM glucose + 10% FBS, 0.0211 µM
[16] = RPMI 5 mM glucose + 10% FBS, 0.0632 µM
[17] = RPMI 5 mM glucose + 10% FBS, 0.19 µM
[18] = RPMI 5 mM glucose + 10% FBS, 0.569 µM
[19] = RPMI 5 mM glucose + 10% FBS, 1.71 µM
[20] = RPMI 5 mM glucose + 10% FBS, 5.12 µM
[21] = RPMI 5 mM glucose + 10% FBS, 15.4 µM
[22] = RPMI 5 mM glucose + 10% FBS, 46.1 µM
[23] = RPMI 5 mM glucose + 10% dialyzed FBS, 0.000781 µM
[24] = RPMI 5 mM glucose + 10% dialyzed FBS, 0.00234 µM
[25] = RPMI 5 mM glucose + 10% dialyzed FBS, 0.00702 µM
[26] = RPMI 5 mM glucose + 10% dialyzed FBS, 0.0211 µM
[27] = RPMI 5 mM glucose + 10% dialyzed FBS, 0.0632 µM
[28] = RPMI 5 mM glucose + 10% dialyzed FBS, 0.19 µM
[29] = RPMI 5 mM glucose + 10% dialyzed FBS, 0.569 µM
[30] = RPMI 5 mM glucose + 10% dialyzed FBS, 1.71 µM
[31] = RPMI 5 mM glucose + 10% dialyzed FBS, 5.12 µM
[32] = RPMI 5 mM glucose + 10% dialyzed FBS, 15.4 µM
[33] = RPMI 5 mM glucose + 10% dialyzed FBS, 46.1 µM

## CCC(=O)O[C@@]1([C@@H](C)C[C@H]2[C@@H]3CCC/4=C/C(=O)/C=C\[C@]4(C)[C@@]3(F)[C@@H](O)C[C@]12C)C(=O)CCl
[1]
  cell viability: 86%
[2]
  cell viability: 92.1%
[3]
  cell viability: 91.3%
[4]
  cell viability: 57.7%
[5]
  cell viability: 71.1%
[6]
  cell viability: 69.8%
[7]
  cell viability: 57%
[8]
  cell viability: 72.3%
[9]
  cell viability: 61.8%
[10]
  cell viability: 66.4%
[11]
  cell viability: 63.4%
[12]
  cell viability: 88.5%
[13]
  cell viability: 95.4%
[14]
  cell viability: 95.9%
[15]
  cell viability: 51.3%
[16]
  cell viability: 67.8%
[17]
  cell viability: 62.6%
[18]
  cell viability: 65.1%
[19]
  cell viability: 66.1%
[20]
  cell viability: 67.6%
[21]
  cell viability: 56%
[22]
  cell viability: 66.9%
[23]
  cell viability: 85.2%
[24]
  cell viability: 81%
[25]
  cell viability: 91.4%
[26]
  cell viability: 49.4%
[27]
  cell viability: 63.3%
[28]
  cell viability: 64.6%
[29]
  cell viability: 64.8%
[30]
  cell viability: 54.1%
[31]
  cell viability: 64.1%
[32]
  cell viability: 55.6%
[33]
  cell viability: 40.7%

## CC(C)(C)/[N+]([O-])=C/c1ccc([S+](=O)([O-])[O][Na])cc1[S+](=O)([O-])[O][Na]
[1]
  cell viability: 88.7%
[2]
  cell viability: 76.3%
[3]
  cell viability: 84.5%
[4]
  cell viability: 99.9%
[5]
  cell viability: 84.6%
[6]
  cell viability: 98.6%
[7]
  cell viability: 101%
[8]
  cell viability: 90.3%
[9]
  cell viability: 88.1%
[10]
  cell viability: 99.2%
[11]
  cell viability: 94.9%
[12]
  cell viability: 115%
[13]
  cell viability: 83.1%
[14]
  cell viability: 86.9%
[15]
  cell viability: 109%
[16]
  cell viability: 105%
[17]
  cell viability: 124%
[18]
  cell viability: 110%
[19]
  cell viability: 108%
[20]
  cell viability: 116%
[21]
  cell viability: 91.2%
[22]
  cell viability: 108%
[23]
  cell viability: 95.7%
[24]
  cell viability: 105%
[25]
  cell viability: 102%
[26]
  cell viability: 94.1%
[27]
  cell viability: 98.8%
[28]
  cell viability: 120%
[29]
  cell viability: 117%
[30]
  cell viability: 104%
[31]
  cell viability: 113%
[32]
  cell viability: 105%
[33]
  cell viability: 110%

## C[C@@H]1CC[C@@]2(OC1)O[C@H]3C[C@H]4[C@@H]5C/C=C6/C[C@H](CC[C@]6(C)[C@H]5CC[C@]4(C)[C@H]3[C@@H]2C)O[C@@H]7O[C@H](CO)[C@@H](O[C@@H]8O[C@@H](C)[C@H](O)[C@@H](O)[C@H]8O)[C@H](O)[C@H]7O[C@@H]9O[C@@H](C)[C@H](O)[C@@H](O)[C@H]9O
[1]
  cell viability: 92.6%
[2]
  cell viability: 79.3%
[3]
  cell viability: 97.5%
[4]
  cell viability: 110%
[5]
  cell viability: 114%
[6]
  cell viability: 117%
[7]
  cell viability: 118%
[8]
  cell viability: 115%
[9]
  cell viability: 111%
[10]
  cell viability: 73.9%
[11]
  cell viability: 8.36%
[23]
  cell viability: 110%
[24]
  cell viability: 116%
[25]
  cell viability: 114%
[26]
  cell viability: 116%
[27]
  cell viability: 139%
[28]
  cell viability: 104%
[29]
  cell viability: 122%
[30]
  cell viability: 119%
[31]
  cell viability: 119%
[32]
  cell viability: 55%
[33]
  cell viability: 7.66%

## Clc1ccc(C2(c3ccc(-c4cn[nH]c4)cc3)CCNCC2)cc1
[1]
  cell viability: 79.1%
[2]
  cell viability: 97.2%
[3]
  cell viability: 83.5%
[4]
  cell viability: 106%
[5]
  cell viability: 88.8%
[6]
  cell viability: 96.4%
[7]
  cell viability: 73.7%
[8]
  cell viability: 87.4%
[9]
  cell viability: 77.7%
[10]
  cell viability: 40.1%
[11]
  cell viability: 39.9%
[12]
  cell viability: 95.1%
[13]
  cell viability: 99%
[14]
  cell viability: 110%
[15]
  cell viability: 108%
[16]
  cell viability: 96.1%
[17]
  cell viability: 100%
[18]
  cell viability: 98.7%
[19]
  cell viability: 102%
[20]
  cell viability: 95.9%
[21]
  cell viability: 56.7%
[22]
  cell viability: 61%
[23]
  cell viability: 88.3%
[24]
  cell viability: 91.9%
[25]
  cell viability: 90.7%
[26]
  cell viability: 92.7%
[27]
  cell viability: 80.5%
[28]
  cell viability: 90.7%
[29]
  cell viability: 71.8%
[30]
  cell viability: 89.5%
[31]
  cell viability: 80.1%
[32]
  cell viability: 57.1%
[33]
  cell viability: 46.5%

## CNC(=O)c1cccc(-c2ccc3c(N4CCOC[C@@H]4C)nc(N4CCOC[C@@H]4C)nc3n2)c1
[1]
  cell viability: 97.5%
[2]
  cell viability: 102%
[3]
  cell viability: 85.8%
[4]
  cell viability: 77.2%
[5]
  cell viability: 73.2%
[6]
  cell viability: 63.7%
[7]
  cell viability: 62.6%
[8]
  cell viability: 47.8%
[9]
  cell viability: 37.6%
[10]
  cell viability: 38.6%
[11]
  cell viability: 23.1%
[12]
  cell viability: 110%
[13]
  cell viability: 98.1%
[14]
  cell viability: 97%
[15]
  cell viability: 93.3%
[16]
  cell viability: 84.4%
[17]
  cell viability: 77.6%
[18]
  cell viability: 78.7%
[19]
  cell viability: 56.1%
[20]
  cell viability: 47.3%
[21]
  cell viability: 32.9%
[22]
  cell viability: 17.9%
[23]
  cell viability: 97.7%
[24]
  cell viability: 95.9%
[25]
  cell viability: 85.3%
[26]
  cell viability: 76%
[27]
  cell viability: 69.6%
[28]
  cell viability: 64.1%
[29]
  cell viability: 58.6%
[30]
  cell viability: 55.3%
[31]
  cell viability: 43%
[32]
  cell viability: 35%
[33]
  cell viability: 20.7%

## CCOC(=O)Nc1ccc(NCc2ccc(F)cc2)cc1N
[1]
  cell viability: 122%
[2]
  cell viability: 122%
[3]
  cell viability: 128%
[4]
  cell viability: 120%
[5]
  cell viability: 103%
[6]
  cell viability: 123%
[7]
  cell viability: 119%
[8]
  cell viability: 112%
[9]
  cell viability: 113%
[10]
  cell viability: 107%
[11]
  cell viability: 90%
[12]
  cell viability: 115%
[13]
  cell viability: 116%
[14]
  cell viability: 123%
[15]
  cell viability: 136%
[16]
  cell viability: 102%
[17]
  cell viability: 131%
[18]
  cell viability: 122%
[19]
  cell viability: 111%
[20]
  cell viability: 113%
[21]
  cell viability: 134%
[22]
  cell viability: 97.7%
[23]
  cell viability: 106%
[24]
  cell viability: 132%
[25]
  cell viability: 121%
[26]
  cell viability: 128%
[27]
  cell viability: 123%
[28]
  cell viability: 124%
[29]
  cell viability: 112%
[30]
  cell viability: 122%
[31]
  cell viability: 124%
[32]
  cell viability: 122%
[33]
  cell viability: 83.5%

## COc1nc(-c2ccc3c(c2)OCO3)n(-c2ccc(NC(=O)CSc3ccccc3)cc2)n1
[1]
  cell viability: 118%
[2]
  cell viability: 97.1%
[3]
  cell viability: 106%
[4]
  cell viability: 112%
[5]
  cell viability: 114%
[6]
  cell viability: 103%
[7]
  cell viability: 117%
[8]
  cell viability: 98%
[9]
  cell viability: 110%
[10]
  cell viability: 98.5%
[11]
  cell viability: 98.9%
[12]
  cell viability: 113%
[13]
  cell viability: 104%
[14]
  cell viability: 117%
[15]
  cell viability: 102%
[16]
  cell viability: 107%
[17]
  cell viability: 108%
[18]
  cell viability: 94.2%
[19]
  cell viability: 95.5%
[20]
  cell viability: 95.8%
[21]
  cell viability: 101%
[22]
  cell viability: 86.7%
[23]
  cell viability: 96.4%
[24]
  cell viability: 108%
[25]
  cell viability: 122%
[26]
  cell viability: 119%
[27]
  cell viability: 119%
[28]
  cell viability: 102%
[29]
  cell viability: 89%
[30]
  cell viability: 105%
[31]
  cell viability: 118%
[32]
  cell viability: 99.7%
[33]
  cell viability: 82.9%
